Assay results reported in US10435376B2, “Derivatives of 1H-imidazole-4,5-dicarboxamide and use thereof in preparation of anticoccidial drugs” (GUANGZHOU INSIGHTER BIOTECHNOLOGY CO., LTD., priority 2015, dated 2019).

Key:
Format in all cases: in vivo
Eimeria acervulina = test: Inhibitory effects of the derivatives on Eimeria acervulina of chicken; details: for anticoccidial activity in view of survival rate, relative weight gain and feed conversion ratio: 60 ppm, E. acervulina; for responders at 60 ppm, 60 µg/mL / response vs control in vivo at 60 ppm, 60 µg/mL: Eimeria acervulina, 168 h; for responders at 60 ppm, 60 µg/mL / response vs control in vivo at 60 ppm, 60 µg/mL / Feed conversion ratio: broilers, 60 ppm in feed, 400,000 E. acervulina oocysts; for responders at 60 ppm, 60 µg/mL: 7 days after inoculation, read-out: Survival rate (%); for response vs control in vivo at 60 ppm, 60 µg/mL: feed or water, read-out: Relative weight gain (%)
Protocol: (§1) Relative weight gain (%): The broilers were weighed at the beginning and the end of the trial to calculate the average weight gain and relative weigh gain. Relative weight gain=(average weight gain of each group/average weight gain of group 1)×100%.
(§2) Deaths of the broilers: Necropsy was performed and the amount of dead broilers in each group was recorded to calculate the survival rate. Survival rate=(total amount of the broilers in each group−amount of deaths caused by coccidial infection)/total amount of the broilers in each group×100%.
One-day-old yellow-feather fast-growing broilers were raised in a coccidia-free environment, and divided into groups for trial at the age of 18 days when no coccidian oocysts were detected by microscopy in their faeceas. Weak or overweight broilers were removed, and healthy broilers were divided into 10 groups with 50 broilers in each group and weight difference between each two broilers was below 20 g. Groups 1 and 2 were respectively a control group that the broilers were neither infected nor treated, and a control group that the broilers were infected but not treated. Groups 3 to 10 were respectively administrated with different derivatives. The broilers were given ad libitum access to feed and water when the feed was added with different medicines according to Table 3 at the day the broilers were divided. 24 Hours after the trial began, 400,000 sporulated Eimeria acervulina oocysts were inoculated via an oral gavage into the crop of every broiler in each group except group 1. The trial was ended 7 days after the inoculation. Relative weight gain (%), survival rate (%) and feed conversion ratio were evaluated.

Eimeria tenella [1] = test: Inhibitory effects of the derivatives on Eimeria tenella of chicken (60 ppm in feed); details: for anticoccidial activity in view of survival rate, bloody stool score and relative weight gain: 60 ppm, E. tenella; for responders at 60 ppm, 60 µg/mL / response vs control in vivo at 60 ppm, 60 µg/mL: Eimeria tenella, 168 h; for responders at 60 ppm, 60 µg/mL / response vs control in vivo at 60 ppm, 60 µg/mL / Score (bloody stool score): broilers, 60 ppm in feed, 250,000 E. tenella oocysts; for responders at 60 ppm, 60 µg/mL: 7 days after inoculation, read-out: Survival rate (%); for response vs control in vivo at 60 ppm, 60 µg/mL: relative to group 1 (not infected, not treated), read-out: Relative weight gain (%); for Score (bloody stool score): 5 days after inoculation
Source text: (§3) One-day-old yellow-feather fast-growing broilers were raised in a coccidia-free environment, and divided into groups for trial at the age of 18 days when no coccidian oocysts were detected by microscopy in their faeceas. Weak or overweight broilers were removed, and healthy broilers were divided into 30 groups with 50 broilers in each group and weight difference between each two broilers was below 20 g. Groups 1 and 2 were respectively a control group that the broilers were neither infected nor treated, and a control group that the broilers were infected but not treated. Groups 3 to 30 were respectively administrated with different derivatives. The broilers were given ad libitum access to feed and water when the feed was added with different medicines according to Table 1 at the day the broilers were divided. 24 Hours after the trial began, 250,000 sporulated Eimeria tenella oocysts were inoculated via an oral gavage into the crop of every broiler in each group except group 1. Bloody stool score was measured 5 days after the inoculation and the trial was ended 7 days after the inoculation. Relative weight gain (%), survival rate (%) and the bloody stool score were evaluated.
(§4) Bloody stool score: 0, no bloody stool was observed; 1, bloody stool below 25%; 2, 25 to 50% of bloody stool; 3, 50 to 75% of bloody stool; and 4, bloody stool over 75%.
as §1, §2

Eimeria necatrix = test: Inhibitory effects of the derivatives on Eimeria necatrix of chicken; details: for anticoccidial activity in view of survival rate, bloody stool score and relative weight gain: 60 ppm, E. necatrix; for responders at 60 ppm, 60 µg/mL / response vs control in vivo at 60 ppm, 60 µg/mL: Eimeria necatrix, 168 h; for responders at 60 ppm, 60 µg/mL: read-out: Survival rate (%); for response vs control in vivo at 60 ppm, 60 µg/mL: feed or water, read-out: Relative weight gain (%); for response vs control in vivo at 60 ppm, 60 µg/mL / Score (bloody stool score): broilers, 60 ppm in feed, 100,000 E. necatrix oocysts; for Score (bloody stool score): 5 days after inoculation
Protocol: as §4, §1, §2
as §3, with “into 10” for “into 30”, “to 10” for “to 30”, “Table 4” for “Table 1”, “began, 100,000” for “began, 250,000”, “Eimeria necatrix” for “Eimeria tenella”, “were evaluated (according to embodiment 2).” for “were evaluated.”

Eimeria tenella [2] = test: Inhibitory effects of the derivatives of different dosages on Eimeria tenella of chicken; set-up: key to Score (bloody stool score): 0 = no bloody stool to 4 = bloody stool over 75%; details: broilers, E. tenella; for Score (bloody stool score): 5 days after inoculation
Protocol: as §4, §1, §2
as §3, with “divided into 16 groups with” for “divided into 30 groups with”, “3 to 16 were respectively” for “3 to 30 were respectively”, “with different kinds or different dosages of derivatives. The” for “with different derivatives. The”, “to Table 2 at the” for “to Table 1 at the”, “score were evaluated (according to embodiment 2).” for “score were evaluated.”

Compound: NC(=O)c1ncn(Cc2c(F)cccc2Cl)c1C(N)=O [IST15031, 1-(2-chloro-6-fluorobenzyl)-1H-imidazole-4,5-dicarboxamide]
- anticoccidial activity in view of survival rate, relative weight gain and feed conversion ratio (Eimeria acervulina): highest anticoccidial activities
- responders at 60 ppm, 60 µg/mL (Eimeria acervulina): 100%
- response vs control in vivo at 60 ppm, 60 µg/mL (Eimeria acervulina): 94.8%
- Feed conversion ratio (Eimeria acervulina): 2.179
- anticoccidial activity in view of survival rate, bloody stool score and relative weight gain (Eimeria tenella [1]): highest anticoccidial activities
- responders at 60 ppm, 60 µg/mL (Eimeria tenella [1]): 100%
- response vs control in vivo at 60 ppm, 60 µg/mL (Eimeria tenella [1]): 95.8%
- Score (bloody stool score) (Eimeria tenella [1]): 1 (bloody stool below 25%)
- anticoccidial activity in view of survival rate, bloody stool score and relative weight gain (Eimeria necatrix): highest anticoccidial activities
- responders at 60 ppm, 60 µg/mL (Eimeria necatrix): 100%
- response vs control in vivo at 60 ppm, 60 µg/mL (Eimeria necatrix): 92.5%
- Score (bloody stool score) (Eimeria necatrix): 1 (bloody stool below 25%)
- Relative weight gain (%) (Eimeria tenella [2]; 5 ppm in feed): 67.8%
- Survival rate (%) (Eimeria tenella [2]; 5 ppm in feed): 76%
- Score (bloody stool score) (Eimeria tenella [2]; 5 ppm in feed): 4 (bloody stool over 75%)
- Relative weight gain (%) (Eimeria tenella [2]; 10 ppm in feed): 72.3%
- Survival rate (%) (Eimeria tenella [2]; 10 ppm in feed): 88%
- Score (bloody stool score) (Eimeria tenella [2]; 10 ppm in feed): 4 (bloody stool over 75%)
- Relative weight gain (%) (Eimeria tenella [2]; 20 ppm in feed): 79.8%
- Survival rate (%) (Eimeria tenella [2]; 20 ppm in feed): 100%
- Score (bloody stool score) (Eimeria tenella [2]; 20 ppm in feed): 2 (25 to 50% of bloody stool)
- Relative weight gain (%) (Eimeria tenella [2]; 50 ppm in feed): 90.5%
- Survival rate (%) (Eimeria tenella [2]; 50 ppm in feed): 100%
- Score (bloody stool score) (Eimeria tenella [2]; 50 ppm in feed): 1 (bloody stool below 25%)
- Relative weight gain (%) (Eimeria tenella [2]; 100 ppm in feed): 98.9%
- Survival rate (%) (Eimeria tenella [2]; 100 ppm in feed): 100%
- Score (bloody stool score) (Eimeria tenella [2]; 100 ppm in feed): 0
- Relative weight gain (%) (Eimeria tenella [2]; 200 ppm in feed): 102.5%
- Survival rate (%) (Eimeria tenella [2]; 200 ppm in feed): 100%
- Score (bloody stool score) (Eimeria tenella [2]; 200 ppm in feed): 0
- Relative weight gain (%) (Eimeria tenella [2]; 500 ppm in feed): 100.4%
- Survival rate (%) (Eimeria tenella [2]; 500 ppm in feed): 100%
- Score (bloody stool score) (Eimeria tenella [2]; 500 ppm in feed): 0

Compound: NC(=O)c1ncn(Cc2ccc(C(F)(F)F)cc2)c1C(N)=O [IST15051, 1-(4-(trifluromethyl)benzyl)-1H-imidazole-4,5-dicarboxamide]
- anticoccidial activity in view of survival rate, relative weight gain and feed conversion ratio (Eimeria acervulina): highest anticoccidial activities
- responders at 60 ppm, 60 µg/mL (Eimeria acervulina): 100%
- response vs control in vivo at 60 ppm, 60 µg/mL (Eimeria acervulina): 102%
- Feed conversion ratio (Eimeria acervulina): 2.109
- anticoccidial activity in view of survival rate, bloody stool score and relative weight gain (Eimeria tenella [1]): highest anticoccidial activities
- responders at 60 ppm, 60 µg/mL (Eimeria tenella [1]): 100%
- response vs control in vivo at 60 ppm, 60 µg/mL (Eimeria tenella [1]): 101%
- Score (bloody stool score) (Eimeria tenella [1]): 0
- anticoccidial activity in view of survival rate, bloody stool score and relative weight gain (Eimeria necatrix): highest anticoccidial activities
- responders at 60 ppm, 60 µg/mL (Eimeria necatrix): 100%
- response vs control in vivo at 60 ppm, 60 µg/mL (Eimeria necatrix): 99.5%
- Score (bloody stool score) (Eimeria necatrix): 0
- Relative weight gain (%) (Eimeria tenella [2]; 5 ppm in feed): 80.4%
- Survival rate (%) (Eimeria tenella [2]; 5 ppm in feed): 96%
- Score (bloody stool score) (Eimeria tenella [2]; 5 ppm in feed): 4 (bloody stool over 75%)
- Relative weight gain (%) (Eimeria tenella [2]; 10 ppm in feed): 88.6%
- Survival rate (%) (Eimeria tenella [2]; 10 ppm in feed): 100%
- Score (bloody stool score) (Eimeria tenella [2]; 10 ppm in feed): 2 (25 to 50% of bloody stool)
- Relative weight gain (%) (Eimeria tenella [2]; 20 ppm in feed): 95.9%
- Survival rate (%) (Eimeria tenella [2]; 20 ppm in feed): 100%
- Score (bloody stool score) (Eimeria tenella [2]; 20 ppm in feed): 0
- Relative weight gain (%) (Eimeria tenella [2]; 50 ppm in feed): 98.7%
- Survival rate (%) (Eimeria tenella [2]; 50 ppm in feed): 100%
- Score (bloody stool score) (Eimeria tenella [2]; 50 ppm in feed): 0
- Relative weight gain (%) (Eimeria tenella [2]; 100 ppm in feed): 101.2%
- Survival rate (%) (Eimeria tenella [2]; 100 ppm in feed): 100%
- Score (bloody stool score) (Eimeria tenella [2]; 100 ppm in feed): 0
- Relative weight gain (%) (Eimeria tenella [2]; 200 ppm in feed): 99.4%
- Survival rate (%) (Eimeria tenella [2]; 200 ppm in feed): 100%
- Score (bloody stool score) (Eimeria tenella [2]; 200 ppm in feed): 0
- Relative weight gain (%) (Eimeria tenella [2]; 500 ppm in feed): 103.6%
- Survival rate (%) (Eimeria tenella [2]; 500 ppm in feed): 100%
- Score (bloody stool score) (Eimeria tenella [2]; 500 ppm in feed): 0
